Blank lines part the entries; values can stand above or below the compound they belong to.
Tests used:
[1] = Study 3201: serum urate in patients with acute manic episodes associated with bipolar I disorder, iloperidone vs placebo, 4 weeks; format: in vivo, human; settings: for Serum urate LS Mean Change (SE) from baseline: iloperidone 24 mg/day (12 mg bid) oral, ANCOVA
Method: A multi-center, randomized, double-blind, placebo-controlled study (“Study 3201”) is performed to evaluate the safety and efficacy of iloperidone for four (4) weeks in the treatment of patients with acute manic episodes associated with bipolar I disorder. Patients in the study are randomized to orally receive either iloperidone at a dose of 24 mg/day given in a divided dose as 12 mg twice daily (bid), or matched placebo.
These increases are illustrated in FIG. 3 using solid data points.
To test the hypothesis of altered urate serum levels in association with variants in the SLC2A9 gene, whole genome sequencing is conducted from blood samples, genotype status is obtained through standard data analysis, and linear models for SLC2A9 variants are performed on urate concentration in samples collected at baseline (corrected for PCs, age, sex) and samples collected at the end of the study (EOS).

[2] = human, in vivo
Method: A study is performed to evaluate the efficacy and safety of iloperidone compared with placebo and active control (ziprasidone) in subjects with acute schizophrenia (“Study 3101”). Patients are randomized to receive one of iloperidone at a dose of 24 mg/day given in a divided dose as 12 mg twice daily (bid), active comparator ziprasidone, or placebo. […] Uric acid results are converted to SI units using the conversion 1 mg/dL=59.5 μmol/L.
Results are provided in Table 7 below, including an increase of 28.0 μmol/L for iloperidone compared to a decrease of 4.2 μmol/L in placebo groups.
Patient genotypes are obtained via a commercial 500 k SNP Gene Chip Human Mapping Array. To test the hypothesis of altered urate serum levels in association with variants in SLC2A9, Linear models for SLC2A9 variants are performed on urate at baseline levels (corrected for PCs, age, sex) followed by samples collected at end of study (EOS).

Increase of serum urate levels ([1]; 24 mg/day given as 12 mg bid, value in mg/dL): ~0.457 mg/dL
Serum urate LS Mean Difference (95% CI), iloperidone vs placebo ([1]; Day 7, 24 mg/day): 1.3 (−9.29, 11.88) μmol/L
Serum urate LS Mean Change (SE) from baseline ([1]; Day 7): −2.7 (−4.07), 199 μmol/L
Serum urate LS Mean Difference (95% CI), iloperidone vs placebo ([1]; Day 14, 24 mg/day): 15.3 (4.50, 26.15) μmol/L
Serum urate LS Mean Change (SE) from baseline ([1]; Day 14): 12.6 (−4.28), 173 μmol/L
Serum urate LS Mean Difference (95% CI), iloperidone vs placebo ([1]; Day 21, 24 mg/day): 21.0 (8.91, 33.18) μmol/L
Serum urate LS Mean Change (SE) from baseline ([1]; Day 21): 19.1 (−5.24), 157 μmol/L
Serum urate LS Mean Change (SE) from baseline ([1]; Day 28 (endpoint)): 27.2 (−4.93), 142 μmol/L
Serum urate LS Mean Change (SE) from baseline ([1]; Day 28 (endpoint), listed as FANAPT® iloperidone): approximately 27.2 μmol/L
Serum urate LS Mean Change (SE) from baseline ([1]; Day 28 (endpoint), listed as iloperidone): 27.2 µmol/L
Increase in serum urate from baseline compared to placebo ([1]; Day 28, 24 mg/day): 4 fold
Serum urate LS Mean Difference (95% CI), iloperidone vs placebo ([1]; Day 28, 24 mg/day): 27.1 (14.94, 39.20) μmol/L
Change in serum urate from baseline (mean, observed cases) ([1]; Day 28, 24 mg/day, FIG. 3): 33.4 µmol/L
LS Mean Change (SE) in Serum Urate ([1]; Day 28, genotype AA): 25.74 (6.53), 73 μmol/L
Serum urate LS Mean Difference (95% CI), iloperidone vs placebo ([1]; Day 28, genotype AA): 31.91 (14.82, 49) μmol/L
LS Mean Change (SE) in Serum Urate ([1]; Day 28, genotype AA, sex F): 25.48 (9.16), 34 μmol/L
Serum urate LS Mean Difference (95% CI), iloperidone vs placebo ([1]; Day 28, genotype AA, sex F): 27.85 (2.93, 52.76) μmol/L
LS Mean Change (SE) in Serum Urate ([1]; Day 28, genotype AA, sex M): 28.89 (8.7), 39 μmol/L
Serum urate LS Mean Difference (95% CI), iloperidone vs placebo ([1]; Day 28, genotype AA, sex M): 35.52 (12.82, 58.22) μmol/L
LS Mean Change (SE) in Serum Urate ([1]; Day 28, genotype AG): 24.62 (7.61), 51 μmol/L
Serum urate LS Mean Difference (95% CI), iloperidone vs placebo ([1]; Day 28, genotype AG): 14.84 (−4.18, 33.86) μmol/L
LS Mean Change (SE) in Serum Urate ([1]; Day 28, genotype AG, sex F): 0.06 (10.14), 27 μmol/L
Serum urate LS Mean Difference (95% CI), iloperidone vs placebo ([1]; Day 28, genotype AG, sex F): −7.9 (−34.82, 19.03) μmol/L
LS Mean Change (SE) in Serum Urate ([1]; Day 28, genotype AG, sex M): 53.41 (10.84), 24 μmol/L
Serum urate LS Mean Difference (95% CI), iloperidone vs placebo ([1]; Day 28, genotype AG, sex M): 40.79 (14.61, 66.96) μmol/L
LS Mean Change (SE) in Serum Urate ([1]; Day 28, genotype GG): 40.09 (12.36), 18 μmol/L
Serum urate LS Mean Difference (95% CI), iloperidone vs placebo ([1]; Day 28, genotype GG): 56.95 (18.91, 94.99) μmol/L
LS Mean Change (SE) in Serum Urate ([1]; Day 28, genotype GG, sex F): −0.19 (19.49), 7 μmol/L
Serum urate LS Mean Difference (95% CI), iloperidone vs placebo ([1]; Day 28, genotype GG, sex F): 3.08 (−50.97, 57.13) μmol/L
LS Mean Change (SE) in Serum Urate ([1]; Day 28, genotype GG, sex M): 65.61 (15.42), 11 μmol/L
Serum urate LS Mean Difference (95% CI), iloperidone vs placebo ([1]; Day 28, genotype GG, sex M): 102.96 (48.93, 156.99) μmol/L
Mean Change (SE) from Baseline in Serum Urate, Observed Cases ([1]; Day 28, rs7442295 genotype AA, 24 mg/day): 30.5 (50.99), 73 μmol/L
Mean Change (SE) from Baseline in Serum Urate, Observed Cases ([1]; Day 28, rs7442295 genotype AG, 24 mg/day): 31.9 (59.39), 51 μmol/L
Mean Change (SE) from Baseline in Serum Urate, Observed Cases ([1]; Day 28, rs7442295 genotype GG, 24 mg/day): 49.1 (60.56), 18 μmol/L
LS Mean Change (SE) in Serum Urate ([1]; EOS (last observation carried forward), genotype AA, sex F): 14.93 (8.59), 41 μmol/L
LS Mean Change (SE) in Serum Urate ([1]; EOS (last observation carried forward), genotype AA, sex M): 20.63 (7.29), 60 μmol/L
LS Mean Change (SE) in Serum Urate ([1]; EOS (last observation carried forward), genotype AG, sex F): −2.27 (8.75), 39 μmol/L
LS Mean Change (SE) in Serum Urate ([1]; EOS (last observation carried forward), genotype AG, sex M): 32.96 (8.74), 41 μmol/L
LS Mean Change (SE) in Serum Urate ([1]; EOS (last observation carried forward), genotype GG, sex F): −6.03 (20.3), 7 μmol/L
LS Mean Change (SE) in Serum Urate ([1]; EOS (last observation carried forward), genotype GG, sex M): 67.03 (15.38), 12 μmol/L
Percentage of patients with serum urate above ULN ([1]; EOS, Female (ULN 394 μmol/l), rs7442295 AA): 15.0%
Percentage of patients with serum urate above ULN ([1]; EOS, Female (ULN 394 μmol/l), rs7442295 AG): 8.1%
Percentage of patients with serum urate above ULN ([1]; EOS, Female (ULN 394 μmol/l), rs7442295 GG): 0.0%
Percentage of patients with serum urate above ULN ([1]; EOS, Male (ULN 453 μmol/l), rs7442295 AA): 12.3%
Percentage of patients with serum urate above ULN ([1]; EOS, Male (ULN 453 μmol/l), rs7442295 AG): 13.5%
Percentage of patients with serum urate above ULN ([1]; EOS, Male (ULN 453 μmol/l), rs7442295 GG): 33.3%
Percentage of patients with serum urate above ULN ([1]; EOS, Male (ULN 453 μmol/l), rs7442295 GG, listed as iloperidone): about 33.3%
LS Mean Change (SE) in Serum Urate ([1]; EOS, genotype AA): 16.73 (5.66), 101 μmol/L
Serum urate LS Mean Difference (95% CI), iloperidone vs placebo ([1]; EOS, genotype AA): 18.23 (3.19, 33.28) μmol/L
Serum urate LS Mean Difference (95% CI), iloperidone vs placebo ([1]; EOS, genotype AA, sex F): 15.97 (−6.71, 38.64) μmol/L
Serum urate LS Mean Difference (95% CI), iloperidone vs placebo ([1]; EOS, genotype AA, sex M): 18.99 (−0.89, 38.86) μmol/L
LS Mean Change (SE) in Serum Urate ([1]; EOS, genotype AG): 15.05 (6.29), 80 μmol/L
Serum urate LS Mean Difference (95% CI), iloperidone vs placebo ([1]; EOS, genotype AG): 8.61 (−8.27, 25.48) μmol/L
Serum urate LS Mean Difference (95% CI), iloperidone vs placebo ([1]; EOS, genotype AG, sex F): −1.4 (−25.85, 23.06) μmol/L
Serum urate LS Mean Difference (95% CI), iloperidone vs placebo ([1]; EOS, genotype AG, sex M): 19.58 (−2.91, 42.08) μmol/L
LS Mean Change (SE) in Serum Urate ([1]; EOS, genotype GG): 40.4 (12.41), 19 μmol/L
Serum urate LS Mean Difference (95% CI), iloperidone vs placebo ([1]; EOS, genotype GG): 55.4 (18.68, 92.13) μmol/L
Serum urate LS Mean Difference (95% CI), iloperidone vs placebo ([1]; EOS, genotype GG, sex F): 4.54 (−50.43, 59.52) μmol/L
Serum urate LS Mean Difference (95% CI), iloperidone vs placebo ([1]; EOS, genotype GG, sex M): 88.45 (38.7, 138.21) μmol/L
Increases in serum urate levels in iloperidone-treated patients homozygous for rs7442295 (G) ([1]; GG genotype compared with other iloperidone-treated patients): nearly twice as large
Increase in percentage of male rs7442295-G/G individuals with high urate levels, baseline to end of study ([1]; male, GG, from about 8.3% at baseline): approximately 4 fold
SMILES: COc1cc(C(C)=O)ccc1OCCCN1CCC(c2noc3cc(F)ccc23)CC1 [Iloperidone, 1-[4-[3-[4-(6-flouro-1,2-benzisoxazol-3-yl)-1-piperidinyl]propoxy]-3-methoxyphenyl]ethanone]
Change in SUC relative to baseline at EOS, rs7442295-G/G vs A/G or A/A ([1]; iloperidone-treated patients, FIG. 9, panova<0.0001): significantly greater change from baseline

Serum urate LS mean change from baseline to endpoint, ziprasidone treatment arm [2]: 13.1 µmol/L
SMILES: O=C1Cc2cc(CCN3CCN(c4nsc5ccccc45)CC3)c(Cl)cc2N1 [ziprasidone]

Source: US12478619B2, “Method of treatment with milsaperidone” (Vanda Pharmaceuticals Inc., priority 2023, dated 2025)
